This note sets out measurements from PMC5241706, “Biochemical and Structural Characterization of Selective Allosteric Inhibitors of the Plasmodium falciparum Drug Target, Prolyl-tRNA-synthetase” (ACS Infectious Diseases, 2016).

Like-named read-outs stand apart in the source and are kept apart here.

Assay [1] deals with T1, HsProRS (Homo sapiens, UniProt P07814).
T1 construct: made in house
T1 sequence (P07814 1007-1512 limits assumed): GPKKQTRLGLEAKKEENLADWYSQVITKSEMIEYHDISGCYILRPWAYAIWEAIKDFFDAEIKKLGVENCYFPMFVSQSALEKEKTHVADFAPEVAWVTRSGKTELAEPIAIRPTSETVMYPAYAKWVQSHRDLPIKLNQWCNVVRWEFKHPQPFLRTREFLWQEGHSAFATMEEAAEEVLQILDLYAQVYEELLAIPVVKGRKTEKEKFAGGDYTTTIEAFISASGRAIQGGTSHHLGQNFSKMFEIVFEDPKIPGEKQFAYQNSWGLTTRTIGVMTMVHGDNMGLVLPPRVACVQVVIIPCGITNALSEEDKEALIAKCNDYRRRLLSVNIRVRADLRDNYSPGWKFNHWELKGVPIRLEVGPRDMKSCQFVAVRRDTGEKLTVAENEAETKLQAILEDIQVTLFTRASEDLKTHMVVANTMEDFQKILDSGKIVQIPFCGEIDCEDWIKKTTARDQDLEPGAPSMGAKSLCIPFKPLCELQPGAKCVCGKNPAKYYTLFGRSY
Nature of the assay: luciferase ATP depletion assay, counter-screen. It counts as biochemical. To be noted: for inhibition at 2.5 µM: at 2.50 μM (22.50 μM series); for inhibition at 7.5 µM: at 7.50 μM; for inhibition at 22.5 µM: at 22.50 μM; for inhibition at 187.5 µM: at 187.50 μM.

Assay [2] deals with T2, PfProRS (Plasmodium falciparum, UniProt Q8I5R7).
T2 construct: B2, AA7–746 (minus 6 amino acids, or 99% of the ORF); made in house; host or cells: E. coli BL21(DE3)R3 Rosetta Oxford
T2 sequence (Q8I5R7 7-746): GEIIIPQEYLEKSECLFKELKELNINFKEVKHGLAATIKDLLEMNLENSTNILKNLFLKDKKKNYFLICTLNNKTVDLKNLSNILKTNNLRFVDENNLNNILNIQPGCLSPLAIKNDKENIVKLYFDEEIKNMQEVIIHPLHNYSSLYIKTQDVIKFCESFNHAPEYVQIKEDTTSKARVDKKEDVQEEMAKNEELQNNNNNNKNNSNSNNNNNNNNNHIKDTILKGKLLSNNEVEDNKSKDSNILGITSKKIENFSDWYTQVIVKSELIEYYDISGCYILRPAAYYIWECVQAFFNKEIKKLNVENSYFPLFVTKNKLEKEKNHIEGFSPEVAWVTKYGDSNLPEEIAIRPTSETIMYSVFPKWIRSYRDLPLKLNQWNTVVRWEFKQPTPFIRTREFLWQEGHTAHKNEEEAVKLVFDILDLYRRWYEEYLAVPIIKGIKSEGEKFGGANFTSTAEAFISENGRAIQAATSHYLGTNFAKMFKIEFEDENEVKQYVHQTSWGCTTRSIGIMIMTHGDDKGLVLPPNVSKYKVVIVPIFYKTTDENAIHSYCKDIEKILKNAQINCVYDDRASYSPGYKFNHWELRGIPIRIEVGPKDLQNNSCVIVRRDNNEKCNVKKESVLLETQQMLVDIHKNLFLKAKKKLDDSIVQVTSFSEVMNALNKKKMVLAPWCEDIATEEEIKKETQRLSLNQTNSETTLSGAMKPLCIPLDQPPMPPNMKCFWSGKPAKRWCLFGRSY
The experiment in a line: luciferase ATP depletion assay, HTS format. It is filed as biochemical.

[3] abbreviates: read-out: Percentage inhibition Pf ProRS.
The mark [4] stands for this setting: at 0.03 μM (22.50 μM series), read-out: Percentage inhibition Hs ProRS.
[5] abbreviates: read-out: Percentage inhibition Hs ProRS.
The mark [6] stands for this setting: at 1.46 μM (750 μM series), read-out: Percentage inhibition Hs ProRS.

`CCn1nc(-c2ccc(C(=O)OC)cc2)nc2c(=O)n(C)c(=O)nc1-2` [MMV306025]: the inhibition at 0.03 µM in assay [1] (at 0.03 μM (MMV306025 series), read-out: Percentage inhibition Hs ProRS) is 0.3%. Also, in assay [1] (at 0.06 μM, read-out: Percentage inhibition Hs ProRS), the inhibition at 0.06 µM is -0.07%. In assay [1] (at 0.12 μM (MMV306025 series), read-out: Percentage inhibition Hs ProRS), the inhibition at 0.12 µM came to 0.1%. Further, the inhibition at 0.23 µM in assay [1] (at 0.23 μM, read-out: Percentage inhibition Hs ProRS) turned out to be 0.67%. For the same compound, in assay [1] (at 0.47 μM, read-out: Percentage inhibition Hs ProRS), the inhibition at 0.47 µM was found to be 4.1%. The inhibition at 0.94 µM in assay [1] (at 0.94 μM, read-out: Percentage inhibition Hs ProRS) was determined as 14.9%. Also, the inhibition at 1.88 µM in assay [1] (at 1.88 μM, read-out: Percentage inhibition Hs ProRS) was determined as 21.6%. In assay [2] (setting [3]), the inhibition at 0.03 µM was -0.55%, the inhibition at 0.06 µM was -0.04%, the inhibition at 0.12 µM is 0.62% and the inhibition at 0.23 µM amounted to 4.5%. In assay [2] (setting [3]), the inhibition at 0.47 µM amounted to 21.8%, the inhibition at 0.94 µM came out at 28.4%, the inhibition at 1.88 µM amounted to 30% and the inhibition at 2.5 µM was found to be 72.8%.

On to `Cc1ccc(-c2oc(N)c(C#N)c2-c2ccc(C)cc2)cc1` [SJ000368256], for which the inhibition at 0.12 µM was -0.1% in assay [1] (at 0.12 μM (30 μM series), read-out: Percentage inhibition Hs ProRS) and -0.29% in assay [2] (setting [3]). Further, the inhibition at 0.37 µM is 0.01% in assay [1] (at 0.37 μM, read-out: Percentage inhibition Hs ProRS) and -0.09% in assay [2] (setting [3]). For the same compound, the inhibition at 1.46 µM in assay [1] (at 1.46 μM (30 μM series), read-out: Percentage inhibition Hs ProRS) was -0.15%; in assay [2] (setting [3]), -0.33%. For the same compound, the inhibition at 3.33 µM was determined as 0.06% in assay [1] (at 3.33 μM, read-out: Percentage inhibition Hs ProRS) and 0.44% in assay [2] (setting [3]). Also, the inhibition at 10 µM came out at 0.08% in assay [1] (at 10.00 μM, read-out: Percentage inhibition Hs ProRS) and 0.96% in assay [2] (setting [3]). Further, the inhibition at 30 µM turned out to be 0.41% in assay [1] (at 30.00 μM, read-out: Percentage inhibition Hs ProRS) and 39.7% in assay [2] (setting [3]).

On to `O=C(CCn1cncn1)N1CCCC(c2[nH]c3ccccc3c2-c2ccncc2)C1` (stereo not drawn) [TCMDC-125377], for which, in assay [1] (setting [4]), the inhibition at 0.03 µM amounted to 0.18%. Further, in assay [1] (setting [5]), the inhibition at 0.09 µM was -0.1%, the inhibition at 0.28 µM was -0.22%, the inhibition at 0.83 µM was -0.91% and the inhibition at 2.5 µM is -0.37%. In assay [1] (setting [5]), the inhibition at 7.5 µM turned out to be 0.2% and the inhibition at 22.5 µM worked out at 0.03%. Further, in assay [2] (setting [3]), the inhibition at 0.28 µM is 6.8%, the inhibition at 0.03 µM stood at 1.17%, the inhibition at 0.09 µM came to 2.41% and the inhibition at 0.83 µM stood at 15.4%. In assay [2] (setting [3]), the inhibition at 2.5 µM was found to be 24.7%, the inhibition at 7.5 µM was 33.9% and the inhibition at 22.5 µM turned out to be 40.1%.

With `N[C@@H](COc1cccc2c(-c3ccncc3)c(-c3cccc(NC(=O)Nc4ccccc4)c3)nn12)c1ccccc1` [TCMDC-135512], the inhibition at 0.03 µM in assay [1] (setting [4]) was -0.42%. In assay [1] (setting [5]), the inhibition at 0.09 µM was found to be 0.03%, the inhibition at 0.28 µM was -0.52%, the inhibition at 0.83 µM was -0.24% and the inhibition at 2.5 µM is -0.12%. Moreover, in assay [1] (setting [5]), the inhibition at 7.5 µM is -0.42% and the inhibition at 22.5 µM was -0.2%. In assay [2] (setting [3]), the inhibition at 0.28 µM came to 2.37%, the inhibition at 0.03 µM came out at 1.13%, the inhibition at 0.09 µM came out at 2.63% and the inhibition at 0.83 µM was determined as 3.62%. Also, in assay [2] (setting [3]), the inhibition at 2.5 µM was 11.8%, the inhibition at 7.5 µM is 40.4% and the inhibition at 22.5 µM came out at 56.8%.

Take `CCCCC(N)COc1cccc2c(-c3ccncc3)c(-c3cccc(NC(=O)Nc4ccccc4)c3)nn12` (stereo not drawn) [TCMDC-135537]: the inhibition at 0.03 µM in assay [1] (setting [4]) was -0.2%. In assay [1] (setting [5]), the inhibition at 0.09 µM is -0.49%, the inhibition at 0.28 µM was determined as 0.03%, the inhibition at 0.83 µM worked out at 0.8% and the inhibition at 2.5 µM was 0%. In assay [1] (setting [5]), the inhibition at 7.5 µM amounted to 0.28% and the inhibition at 22.5 µM is 0.55%. In addition, in assay [2] (setting [3]), the inhibition at 0.28 µM is -1.18%, the inhibition at 0.03 µM was -1.72%, the inhibition at 0.09 µM is -1.11% and the inhibition at 0.83 µM amounted to 1.73%. Moreover, in assay [2] (setting [3]), the inhibition at 2.5 µM stood at 11.7%, the inhibition at 7.5 µM was 39% and the inhibition at 22.5 µM was 84.8%.

On to `N#CC(c1ccc(Cl)cc1)c1c(Cl)cc(-n2ncc(=O)[nH]c2=O)cc1Cl` (stereo not drawn) [diclazuril], for which the inhibition at 0.49 µM turned out to be 0.05% in assay [1] (at 0.49 μM, read-out: Percentage inhibition Hs ProRS) and 0.21% in assay [2] (setting [3]). The inhibition at 0.98 µM was -0.02% in assay [1] (at 0.98 μM, read-out: Percentage inhibition Hs ProRS) and -1.18% in assay [2] (setting [3]). For the same compound, the inhibition at 1.95 µM was 0.08% in assay [1] (at 1.95 μM, read-out: Percentage inhibition Hs ProRS) and -0.74% in assay [2] (setting [3]). For the same compound, the inhibition at 3.91 µM in assay [1] (at 3.91 μM, read-out: Percentage inhibition Hs ProRS) is 0.28%; in assay [2] (setting [3]) it was -0.59%. Further, the inhibition at 7.81 µM in assay [1] (at 7.81 μM, read-out: Percentage inhibition Hs ProRS) was found to be 0.42%; in assay [2] (setting [3]), 2.35%. Further, the inhibition at 15.63 µM turned out to be 0.09% in assay [1] (at 15.63 μM, read-out: Percentage inhibition Hs ProRS) and 2.75% in assay [2] (setting [3]). Besides, the inhibition at 31.25 µM in assay [1] (at 31.25 μM, read-out: Percentage inhibition Hs ProRS) was found to be 0.4%; in assay [2] (setting [3]), 7.77%. Moreover, the inhibition at 62.5 µM in assay [1] (at 62.50 μM, read-out: Percentage inhibition Hs ProRS) was found to be 0.07%; in assay [2] (setting [3]), 19.5%. Besides, the inhibition at 125 µM came out at 0.68% in assay [1] (at 125 μM, read-out: Percentage inhibition Hs ProRS) and 43% in assay [2] (setting [3]). In addition, the inhibition at 250 µM in assay [1] (at 250 μM, read-out: Percentage inhibition Hs ProRS) turned out to be 5.06%; in assay [2] (setting [3]) it was 73.7%. For the same compound, the inhibition at 500 µM in assay [1] (at 500 μM, read-out: Percentage inhibition Hs ProRS) is 9.51%; in assay [2] (setting [3]), 80.2%.

In the case of `Cc1c(Nc2ncccc2C(=O)O)cccc1C(F)(F)F` [flunixin meglumine], in assay [1] (setting [5]), the inhibition at 0.73 µM came to 0.21%, the inhibition at 2.93 µM turned out to be 0.2%, the inhibition at 5.86 µM was 0.17% and the inhibition at 11.72 µM was 0.37%. Besides, in assay [1] (setting [5]), the inhibition at 23.44 µM worked out at 0.52%, the inhibition at 46.88 µM turned out to be 0.27%, the inhibition at 93.75 µM is -0.02% and the inhibition at 187.5 µM was determined as 0.03%. In assay [1] (setting [5]), the inhibition at 375 µM was determined as 0.43% and the inhibition at 750 µM came to 1.37%. Further, the inhibition at 1.46 µM in assay [1] (setting [6]) was 0.19%. In assay [2] (setting [3]), the inhibition at 0.73 µM is 0.6%, the inhibition at 1.46 µM is -0.28%, the inhibition at 2.93 µM is -0.7% and the inhibition at 5.86 µM was -0.41%. Moreover, in assay [2] (setting [3]), the inhibition at 11.72 µM was determined as 1.63%, the inhibition at 23.44 µM amounted to 2.17%, the inhibition at 46.88 µM stood at 11.4% and the inhibition at 93.75 µM is 30.7%. In addition, in assay [2] (setting [3]), the inhibition at 187.5 µM came out at 62%, the inhibition at 375 µM amounted to 87.1% and the inhibition at 750 µM turned out to be 99.8%.

For the compound `COc1ccc(Cl)cc1C(=O)NCCc1ccc(S(=O)(=O)NC(=O)NC2CCCCC2)cc1` [glyburide], in assay [1], the IC50 was > 700 µM. In assay [1] (setting [5]), the inhibition at 0.73 µM was found to be 0.05%, the inhibition at 2.93 µM was -0.04%, the inhibition at 5.86 µM amounted to 0.29% and the inhibition at 11.72 µM stood at 0.01%. In assay [1] (setting [5]), the inhibition at 23.44 µM stood at 0.12%, the inhibition at 46.88 µM amounted to 0.36%, the inhibition at 93.75 µM was determined as 1.41% and the inhibition at 187.5 µM amounted to 4.93%. In assay [1] (setting [5]), the inhibition at 375 µM is 15.1% and the inhibition at 750 µM was 36.1%. For the same compound, in assay [1] (setting [6]), the inhibition at 1.46 µM is 0.03%. Further, the “inhibitory activity for HsProRS” value in assay [1] (up to the limit of solubility (>1 mM)) is reported as < 40%. The compound further yielded an IC50 in assay [2] (PfProRS IC50, 75 nM ProRS, 60 μM proline, 6 μM ATP, 400 μg/mL yeast tRNA, 2 h 37 °C) of 34 µM. Moreover, in assay [2] (setting [3]), the inhibition at 0.73 µM was determined as 1.32%, the inhibition at 1.46 µM was determined as 1.82%, the inhibition at 2.93 µM stood at 6.24% and the inhibition at 5.86 µM came to 12.4%. Further, in assay [2] (setting [3]), the inhibition at 11.72 µM was 23.8%, the inhibition at 23.44 µM came to 39.7%, the inhibition at 46.88 µM amounted to 60% and the inhibition at 93.75 µM amounted to 81.4%. In assay [2] (setting [3]), the inhibition at 187.5 µM was determined as 87%, the inhibition at 375 µM worked out at 94% and the inhibition at 750 µM was 102%.
